# Assays:
# Type in all cases: cell-based
# [1] = system: Staphylococcus epidermidis DSM 20 042; test: Bactericidal activity of haloperoxidase with iodide or bromide, with or without NH4+, Example 2; settings: haloperoxidase 1 mg/l
# Description: (§1) The bactericidal activity was determined by incubation in Malthus. The detection times measured by the Malthus instrument were converted to cfu/ml by a calibration curve.
# (§2) Either direct or indirect Malthus measurements were used when enumerating total survival cells (Malthus Flexi M2060, Malthus Instrument Limited). By the direct measurements, the cell metabolism was determined by conductance measurements in the growth substrate. By the indirect measurements, 3 ml of growth medium was transferred to the outer chamber of the indirect Malthus cells, and 0.5 ml of sterile KOH (0.1 M) was transferred to the inner chamber. The cell suspensions were after enzyme treatment transferred to the outer chamber of the Malthus cell. As cells are growing in the outer chamber they produce CO2 which will dissolve in the KOH in the inner chamber and thereby change the conductance of the KOH. The amount of CO2 formed by the respiring cells surviving the enzyme treatment was used for estimating the number of viable cells. When the conductance change is measurable by the Malthus, a detection time (dt) will be recorded. The dt's were converted to colony counts by use of a calibration curve relating cfu/ml to dt (FIG. 1).
# The antibacterial activity of a haloperoxidase (1 mg/l) was tested in MES-buffer (2-[N-morpholino] ethanesulfonic acid) (pH 6.0) against Staphylococcus epidermidis DSM 20 042 with potassium iodide and potassium bromide as electron donor, and hydrogen peroxide (to a final concentration of 0.5 mM) was added as electron acceptor in the presence of NH4^+. The cells (approximately 10^6 cfu/ml) were incubated with enzyme for 15 min at 40° C. The bactericidal activity was determined by incubation in Malthus (see Example 1).
# [2] = system: Staphylococcus epidermidis DSM 20 042; test: Bactericidal activity of haloperoxidase with ammonium halides vs potassium/sodium halides as electron donors, Example 3; settings: for Log reduction in cell number: haloperoxidase 1 mg/l, 0.5 mM H2O2, pH 6.0, 15 min 40° C.; for bactericidal activity (possible): ammonium halide salt as electron donor, summary of Table 1
# Description: as §1, §2
# The antibacterial activity of a haloperoxidase (1 mg/l) was tested in MES-buffer (2-[N-morpholino] ethanesulfonic acid) (pH 6.0) against Staphylococcus epidermidis DSM 20 042 with ammonium iodide, ammonium chloride or ammonium bromide as electron donors, and hydrogen peroxide was added as electron acceptor giving the final concentration 0.5 mM. The cells (approximately 10^6 cfu/ml) were incubated with enzyme for 15 min at 40° C. The bactericidal activity was determined by incubation in Malthus (see Example 1).
# [3] = system: Pseudomonas aeruginosa ATCC 10146; test: Bactericidal activity of haloperoxidase (rCvP) system, Malthus detection, Example 1; settings: haloperoxidase 1 mg/l, 0.5 mM H2O2, pH 6
# Description: (§3) The antibacterial activity of a haloperoxidase was tested in MES-buffer (2-[N-morpholino] ethanesulfonic acid)(pH 6.0) against Pseudomonas aeruginosa ATCC 10146 and Staphylococcus epidermidis DSM 20 042 with sodium chloride as electron donor, and hydrogen peroxide was added as electron acceptor in the presence of NH4+. The cells (approximately 10^6 cfu/ml) were incubated with the enzyme for 15 min at 40° C.
# as §1, §2
# (§4) Hydrogen peroxide was added to a final concentration of 0.5 mM.
# [4] = system: Staphylococcus epidermidis DSM 20 042; test: as above; settings: haloperoxidase 1 mg/l, 0.5 mM H2O2, pH 6
# Description: as §3, §1, §2, §4
# [5] = system: Staphylococcus epidermidis DSM 20 042; test: Bactericidal activity of haloperoxidase with chloride and ethanolamine, HEPES pH 7.0, Example 4; settings: haloperoxidase 1 mg/L, chloride 80 mM, ethanolamine 2.5 mM, 0.5 mM H2O2, pH 7.0
# Description: as §1
# as §2, with “The amount of CO2 formed by the respiring cells surviving the enzyme treatment was used for estimating the number of viable cells.” left out, “The dt's were converted to colony counts by use of a calibration curve relating cfu/ml to dt (FIG. 1).” left out
# The antibacterial activity of Curvularia verruculosa haloperoxidase (1 mg/L) was tested in HEPES-buffer (Sigma H3375)(pH 7.0) against Staphylococcus epidermidis DSM 20 042 with chloride (80 mM) as electron donor combined with ethanolamine (2.5 mM), and hydrogen peroxide was added as electron acceptor giving the final concentration 0.5 mM. […] The bactericidal activity was determined by incubation in Malthus (see Example 1).
# [6] = 0.5 mM H2O2, pH 6.0, no ammonium
compound,measurement,setting,value
"[Br-].[K+] [KBr, potassium bromide]",bromide concentration needed for 100% bactericidal activity,[1]; [6],> 10 mM
same,Log reduction in cell number,[2]; halide 4 mM,2.8 log cfu/ml
same,Log reduction in cell number,[2]; halide 8 mM,5.4 log cfu/ml
"Br.N [BrNH4, ammonium bromide]",bactericidal activity (possible),[2],100%
same,Log reduction in cell number,[2]; halide 4 mM,3.7 log cfu/ml
same,Log reduction in cell number,[2]; halide 8 mM,6.2 log cfu/ml
"I.N [INH4, ammonium iodide]",bactericidal activity (possible),[2],100%
same,Log reduction in cell number,[2]; halide 0.21 mM,6.2 log cfu/ml
same,Log reduction in cell number,[2]; halide 0.5 mM,6.2 log cfu/ml
"[I-].[K+] [KI, potassium iodide]",iodide concentration for 100% bactericidal activity,"[1]; 0.5 mM H2O2, pH 6.0, ammonium added (FIG. 3)",0.05-0.1 mm
same,iodide concentration for 100% antibacterial activity,[1]; [6],about 0.2 mM
same,Log reduction in cell number,[2]; halide 0.25 mM,5.1 log cfu/ml
same,Log reduction in cell number,[2]; halide 0.5 mM,6.1 log cfu/ml
"[Cl-].[Na+] [NaCl, sodium chloride]",NaCl concentration at which antibacterial activity was observed,[3],above 20 mM
same,NaCl concentration at which plateau of antibacterial activity was reached,[3],approximately 100 mM
same,NaCl concentration at which antibacterial activity was observed,[4],above 20 mM
same,NaCl concentration at which plateau of antibacterial activity was reached,[4],approximately 100 mM
same,Log reduction in cell number,[2]; halide 25 mM,0.5 log cfu/ml
same,Log reduction in cell number,[2]; halide 50 mM,0.8 log cfu/ml
"Cl.N [ClNH4, ammonium chloride]",bactericidal activity (possible),[2],100%
same,Log reduction in cell number,[2]; halide 25 mM,6.2 log cfu/ml
same,Log reduction in cell number,[2]; halide 50 mM,6.2 log cfu/ml
NCCO [ethanolamine],kill,[5],100%

# Reference: US6818212B2, “Antimicrobial composition containing a haloperoxidase, a hydrogen peroxide source, a halide source and an ammonium source” (Novozymes A/S, priority 1997, dated 2004)
